Source: patent US10160748B2 (AbbVie Inc., priority 2015, dated 2018)

molecular target: TNFα trimer (Homo sapiens, UniProt P01375); assay: TNFα FP Competitive Binding Assay; conditions: FP binding assay; 20 nM TNFα trimer, 1 nM OregonGreen488 probe; read-out: TNF IC50
Method: TNFα FP Competitive Binding Assay
• 1. Assay Buffer: Prepare 1× Assay Buffer (Water with 47 mM HEPES, 47 mM NaCl, 0.9 mM EDTA, 0.0071% Triton X-100) by adding 25 mL of 1 M HEPES, 5 mL of 5 M NaCl, 1 mL of 0.5 M EDTA, and 375 μL of a 10% Triton X-100 stock to a fresh 500 mL bottle of water. • 2. Assay Mixture: Prepare fresh Assay Mixture containing 20 nM TNFα trimer (60 nM protein) and 1 nM 2′,7′-difluoro-3′,6′-dihydroxy-N-(2-(2-(2-((4-(isoquinolin-8-yl)-3-(4-(isoquinolin-8-yl)phenethoxy)benzyl)oxy)ethoxy)ethoxy)ethyl)-3-oxo-3H-spiro[isobenzofuran-1,9′-xanthene]-5-carboxamide probe in 1× Assay Buffer. Compound Plate Preparation Manual 12-Point 1:3 Dilution Plates: (384 Well Polypropylene Plates)
Top concentration of compounds, 10 mM in DMSO, dispensed in rows A-O in columns 1 and 13. Compounds are serially diluted 1:3 with DMSO in columns 2-12 or 14-24 using a 16-channel Matrix pipettor. Plates stored at −20° C.
Discovery Preps 12-Point 1:3 Dilution Plates: (384 Well Assay Plates)
Top concentration, 5 mM in DMSO, of compounds placed in rows A-O in columns 1 and 13. Compounds are serially diluted 1:3 with DMSO in columns 2-12 or 14-24. Compound solutions are dispensed into replicate assay plates at 410 nL per well. Plates stored at 4° C.
TNFα FP Competitive Binding Assay Protocol
• 1. Compound plates warmed to rt. • 2. Fresh Assay Mixture is prepared. • 3. Assay Mixture (20 μL) is dispensed each well of 384 assay plates using a Thermo Multidrop Combi or 16-channel Matrix pipettor. If Manual 12-point 1:3 Dilution Plates are to be tested, Assay Mix is dispensed into empty plates. Discovery Preps 12-point 1:3 Dilution Plates already contain 410 nL compound solution in DMSO. • 4. For Manual 12-point 1:3 Dilution Plates, 0.7 μL is manually transferred using a 16-channel Matrix pipettor to replicate assay plates containing 20 μL Assay Mixture for a final top compound concentration of 338 μM (3.4% DMSO). • 5. For Discovery Preps 12-point 1:3 Dilution Plates, 20 μL Assay Mixture added the 410 nL compound solution already in the plates yields a final top compound concentration of 100 μM (2.0% DMSO). • 6. Background subtraction controls are wells P1-P8 containing only Assay Buffer. The low % inhibition controls are wells P9-P16 containing only Assay Mix. The high % inhibition are wells P17-P24 containing only 1 nM 2′,7′-difluoro-3′,6′-dihydroxy-N-(2-(2-(2-((4-(isoquinolin-8-yl)-3-(4-(isoquinolin-8-yl)phenethoxy)benzyl)oxy)ethoxy)ethoxy)ethyl)-3-oxo-3H-spiro[isobenzofuran-1,9′-xanthene]-5-carboxamide probe in 1× Assay Buffer. • 7. Plates are incubated at rt for 18-24 h in 37° C. incubator (CO2 is off). • 8. Prior to reading the assay, the plates are placed in a dark cabinet to equilibrate at rt for one hour. • 9. Background-subtracted fluorescence polarization (mP) is measured using a PerkinElmer Envision plate reader. • 10. Raw data is entered into Assay Explorer and dose-response curves are generated using a variable slope curve. Supplies, Materials, and Reagents

Chain of TNFα trimer (P01375 77-233 limits assumed): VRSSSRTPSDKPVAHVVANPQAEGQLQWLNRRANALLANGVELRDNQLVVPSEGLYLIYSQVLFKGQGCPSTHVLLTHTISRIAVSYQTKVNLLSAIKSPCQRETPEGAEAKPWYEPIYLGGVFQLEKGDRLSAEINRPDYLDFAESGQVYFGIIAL

| SMILES | IC50 |
| --- | --- |
| Cc1ccc(OC(F)F)c(Cn2c3cc(-c4cnc(N5C[C@@H]6CNC(=O)[C@@H]6C5)nc4)ccc3c(=O)n2C)c1 (racemic) [Example 20.3] | 1000 to 10000 nM |
| Cn1c(=O)c2ccc(-c3cnc(C(C)(C)O)nc3)cc2n1Cc1cc([C@H]2CC[C@@H](C#N)C2)ccc1OC(F)F (racemic) [Example 96, rac-(R,3S)-3-(4-(Difluoromethoxy)-3-((6-(2-(2-hydroxypropan-2-yl)pyrimidin-5-yl)-2-methyl-3-oxo-2,3-dihydro-1H-indazol-1-yl)methyl)phenyl)cyclopentane-1-carbonitrile] | 1000 to 10000 nM |
| Cn1c(=O)c2ccc(-c3cnc(C(C)(C)O)nc3)cc2n1Cc1cc([C@H]2CC[C@@H](C#N)C2)ccc1OC(F)F (racemic) [Example 97] | < 1000 nM |
| Cc1ccc(OC(F)F)c(Cn2c3cc(-c4cnn5c(C(C)O)cnc5c4)ccc3c(=O)n2C)c1 (racemic) [Example 106, 1-(2-(Difluoromethoxy)-5-methylbenzyl)-6-(3-(1-hydroxyethyl)imidazo[1,2-b]pyridazin-7-yl)-2-methyl-1H-indazol-3(2H)-one] | < 1000 nM |
| Cn1c(=O)c2ccc(-c3cnc(C(C)(C)O)nc3)cc2n1Cc1cc([C@@H]2CCC[C@@H]2C#N)ccc1OC(F)F (relative stereo) [Example 112, 2-(4-(Difluoromethoxy)-3-((6-(2-(2-hydroxypropan-2-yl)pyrimidin-5-yl)-2-methyl-3-oxo-2,3-dihydro-1H-indazol-1-yl)methyl)phenyl)cyclopentanecarbonitrile] | 1000 to 10000 nM |
| Cn1c(=O)c2ccc(-c3cnc(N4CCN5C(=O)NC[C@@H]5C4)nc3)cc2n1Cc1ccccc1OC(F)F (single isomer, unassigned) [Example 6] | < 1000 nM |
| Cn1c(=O)c2ccc(-c3cnc(N4CCN5C(=O)NC[C@H]5C4)nc3)cc2n1Cc1ccccc1OC(F)F (single isomer, unassigned) [Example 7] | < 1000 nM |
| Cc1ccc(OC(F)F)c(Cn2c3cc(-c4cnc(N5CCN6C(=O)NCC6C5)nc4)ccc3c(=O)n2C)c1 (single isomer, unassigned) [Example 8] | < 1000 nM |
| Cn1c(=O)c2ccc(-c3cnc(N[C@H]4CCNC(=O)C4)nc3)cc2n1Cc1cc(CO)ccc1OC(F)F (single isomer, unassigned) [Example 25] | < 1000 nM |
| Cn1c(=O)c2ccc(-c3cnc(N[C@@H]4CCNC(=O)C4)nc3)cc2n1Cc1cc(CO)ccc1OC(F)F (single isomer, unassigned) [Example 26] | < 1000 nM |
| CN1CC[C@H](Nc2ncc(-c3ccc4c(=O)n(C)n(Cc5cc(CO)ccc5OC(F)F)c4c3)cn2)CC1=O (single isomer, unassigned) [Example 27] | 1000 to 10000 nM |
| CN1CC[C@@H](Nc2ncc(-c3ccc4c(=O)n(C)n(Cc5cc(CO)ccc5OC(F)F)c4c3)cn2)CC1=O (single isomer, unassigned) [Example 28] | < 1000 nM |
| CC(=O)N1CCN(c2ncc(-c3ccc4c(=O)n(C)n(Cc5cc(C)ccc5OC(F)F)c4c3)cn2)C[C@H]1C (single isomer, unassigned) [Example 54] | < 1000 nM |
| CC(=O)N1CCN(c2ncc(-c3ccc4c(=O)n(C)n(Cc5cc(C)ccc5OC(F)F)c4c3)cn2)C[C@@H]1C (single isomer, unassigned) [Example 55] | < 1000 nM |
| C[C@@H]1CN(c2ncc(-c3ccc4c(=O)n(C)n([C@@H](C)c5c(F)cccc5F)c4c3)cn2)CCN1C(=O)CO (single isomer, unassigned) [Example 58] | < 1000 nM |
| C[C@@H]1CN(c2ncc(-c3ccc4c(=O)n(C)n([C@@H](C)c5ccccc5F)c4c3)cn2)CCN1C(=O)CO (single isomer, unassigned) [Example 85] | < 1000 nM |
| C[C@@H]1CN(c2ncc(-c3ccc4c(=O)n(C)n([C@H](C)c5ccccc5F)c4c3)cn2)CCN1C(=O)CO (single isomer, unassigned) [Example 86] | 1000 to 10000 nM |
| Cc1ccc(OC(F)F)c(Cn2c3cc(-c4cnn5c([C@@H](C)O)cnc5c4)ccc3c(=O)n2C)c1 (single isomer, unassigned) [Example 107] | < 1000 nM |
| Cc1ccc(OC(F)F)c(Cn2c3cc(-c4cnn5c([C@H](C)O)cnc5c4)ccc3c(=O)n2C)c1 (single isomer, unassigned) [Example 108] | 1000 to 10000 nM |
| Cc1cccc([C@H](C)n2c3cc(-c4cnc(N5CCN(C(=O)CO)[C@H](C)C5)nc4)ccc3c(=O)n2C)c1 (single isomer, unassigned) [Example 117] | < 1000 nM |
| Cc1cccc([C@@H](C)n2c3cc(-c4cnc(N5CCN(C(=O)CO)[C@H](C)C5)nc4)ccc3c(=O)n2C)c1 (single isomer, unassigned) [Example 118] | 1000 to 10000 nM |
| Cn1c(=O)c2ccc(-c3cnc(N4CCOCC4)nc3)cc2n1Cc1c(F)cccc1OC(F)F [Example 1, 1-(2-(Difluoromethoxy)-6-fluorobenzyl)-2-methyl-6-(2-morpholinopyrimidin-5-yl)-1H-indazol-3(2H)-one] | < 1000 nM |

| SMILES | IC50 |
| --- | --- |
| Cn1c(=O)c2ccc(-c3cnc(N4CCOCC4)nc3)cc2n1Cc1cccc(F)c1 [Example 1.1] | 1000 to 10000 nM |
| Cn1c(=O)c2ccc(-c3cnc(N4CCOCC4)nc3)cc2n1Cc1cccc(OC(F)F)c1 [Example 1.2] | 1000 to 10000 nM |
| Cc1ccccc1Cn1c2cc(-c3cnc(N4CCOCC4)nc3)ccc2c(=O)n1C [Example 1.3] | 1000 to 10000 nM |
| Cn1c(=O)c2ccc(-c3cnc(N4CCOCC4)nc3)cc2n1CCc1ccccc1 [Example 1.4] | > 10000 nM |
| CC(c1ccccc1OC(F)F)n1c2cc(-c3cnc(N4CCOCC4)nc3)ccc2c(=O)n1C (centres unmarked) [Example 1.5] | 1000 to 10000 nM |
| Cn1c(=O)c2ccc(-c3cnc(N4CCOCC4)nc3)cc2n1Cc1cc(F)ccc1OC(F)F [Example 1.6] | 1000 to 10000 nM |
| Cn1c(=O)c2ccc(-c3cnc(N4CCOCC4)nc3)cc2n1C(=O)c1ccccc1OC(F)F [Example 1.7] | > 10000 nM |
| Cn1c(=O)c2ccc(-c3cnc(N4CCOCC4)nc3)cc2n1C(=O)c1ccccc1 [Example 1.8] | > 10000 nM |
| Cc1cccc(Cn2c3cc(-c4cnc(N5CCOCC5)nc4)ccc3c(=O)n2C)c1 [Example 1.9] | 1000 to 10000 nM |
| Cn1c(=O)c2ccc(-c3cnc(N4CCOCC4)nc3)cc2n1Cc1ccccc1 [Example 1.10] | 1000 to 10000 nM |
| Cn1c(=O)c2ccc(-c3cnc(N4CCOCC4)nc3)cc2n1Cc1ccc(F)cc1 [Example 1.11] | > 10000 nM |
| Cn1c(=O)c2ccc(-c3cnc(N4CCOCC4)nc3)cc2n1Cc1ccccc1C#N [Example 1.12] | 1000 to 10000 nM |
| Cn1c(=O)c2ccc(-c3cnc(N4CCOCC4)nc3)cc2n1CCc1ccccc1F [Example 1.13] | > 10000 nM |
| Cn1c(=O)c2ccc(-c3cnc(N4CCOCC4)nc3)cc2n1Cc1ncccc1Cl [Example 1.14] | 1000 to 10000 nM |
| Cn1c(=O)c2ccc(-c3cnc(N4CCOCC4)nc3)cc2n1Cc1ccccc1F [Example 1.15] | 1000 to 10000 nM |
| Cn1c(=O)c2ccc(-c3cnc(N4CCOCC4)nc3)cc2n1Cc1nc(Cl)ccc1Cl [Example 1.16] | 1000 to 10000 nM |
| Cn1c(=O)c2ccc(-c3cnc(N4CCOCC4)nc3)cc2n1Cc1cnccc1Cl [Example 1.17] | > 10000 nM |
| Cc1ccc(OC(F)F)c(Cn2c3cc(-c4cnc(N5CCOCC5)nc4)ccc3c(=O)n2C)c1 [Example 1.18] | < 1000 nM |
| Cc1ccc(C)c(Cn2c3cc(-c4cnc(N5CCOCC5)nc4)ccc3c(=O)n2C)c1 [Example 1.19] | < 1000 nM |
| Cn1c(=O)c2ccc(-c3cnc(N4CCOC(C)(C)C4)nc3)cc2n1Cc1ccccc1OC(F)F [Example 2, 1-(2-(Difluoromethoxy)benzyl)-6-(2-(2,2-dimethylmorpholino)pyrimidin-5-yl)-2-methyl-1H-indazol-3(2H)-one] | < 1000 nM |
| Cn1c(=O)c2ccc(-c3cnc(N4CCN(C(N)=O)CC4)nc3)cc2n1Cc1ccccc1OC(F)F [Example 2.1] | < 1000 nM |
| COC[C@H]1CCCN1c1ncc(-c2ccc3c(=O)n(C)n(Cc4ccccc4OC(F)F)c3c2)cn1 [Example 2.2] | < 1000 nM |
